{"source": "patent US12702654B2", "about": "“Compositions and methods for treating homocystinuria and other conditions using polyamines” (THE REGENTS OF THE UNIVERSITY OF COLORADO, priority 2020, dated 2026)", "key": {"HO HCU mice [1]": {"system": "HO HCU mice", "details": "taurine supplementation; cited from earlier work"}, "SHMT1": {"system": "SHMT1", "test": "Western blotting of hepatic SHMT1 expression", "format": "in vivo, mouse", "details": "HO mice, 30 g/l in drinking water ad libitum, one week", "description": "(§1) To investigate the effects of these treatments upon the hepatic regulatory changes in enzyme expression induced by HCU, the human transgenic HO mouse model of HCU was used. In brief, experimental groups consisting of 8 HO mice on a C57BL/6J background and 8 C57BL/6J WT littermate control mice bred in house were used. Mice in both groups were male and aged between 3 and 4 months. Except where otherwise stated, all mice were maintained on standard chow. All diets were administered using a paired-feeding design to ensure isocaloric intake between all experimental groups and body weights were measured once per week. There was no significant difference in body weight between mice in any of the experimental groups. Betaine and taurine were in this example, both administered by dissolving these compounds in drinking water at 30 g/l (2% or 3% w/v) and were supplied ad libitum for one week. Treatment water was replenished twice per week.\n(§2) These observations are the first to report betaine and taurine acting to regulate expression of these processes. Therefore, this observation supports that taurine alone or in combination with betaine and other treatments for genetic homocystinuria are viable options for avoiding dietary restraints and treating these conditions."}, "HO HCU mice [2]": {"system": "HO HCU mice", "test": "Plasma metabolite levels (tHcy, methionine cycle amino acids, SAM, SAH) in HO HCU mice", "format": "in vivo, mouse", "details": "taurine treatment"}, "human HCU patients": {"system": "human HCU patients", "details": "taurine supplementation; cited from earlier work"}, "MAT1A": {"system": "MAT1A", "test": "Western blotting of hepatic MAT1A expression", "format": "in vivo, mouse", "details": "HO HCU mice, 30 g/l in drinking water ad libitum, one week", "description": "as §1, §2"}, "GNMT": {"system": "GNMT", "test": "Western blotting of hepatic GNMT expression", "format": "in vivo, mouse", "details": "HO HCU mice, 30 g/l in drinking water ad libitum, one week", "description": "as §1, §2"}, "SHMT2": {"system": "SHMT2", "test": "Western blotting of hepatic SHMT2 expression", "format": "in vivo, mouse", "details": "HO mice, 30 g/l in drinking water ad libitum, one week", "description": "as §1\n(§3) Western blotting analysis of SAHH, MTHFR and SHMT2 expression was performed in liver samples from HO mice in the presence and absence of betaine or taurine treatment."}, "SAHH": {"system": "SAHH", "test": "Western blotting of hepatic SAHH expression", "format": "in vivo, mouse", "details": "HO mice, 30 g/l in drinking water ad libitum, one week", "description": "as §1, §3"}, "[3]": {"system": "cysteine oxidation pathways", "test": "Cysteine oxidation pathways in HCU (HO model)", "format": "in vivo, mouse", "details": "30 g/l in drinking water, one week", "description": "as §1"}, "glutathione": {"system": "glutathione", "details": "taurine supplementation; cited from earlier work"}, "MTHFR": {"system": "MTHFR", "test": "Western blotting of hepatic MTHFR expression", "format": "in vivo, mouse", "details": "HO mice, 30 g/l in drinking water ad libitum, one week", "description": "as §1, §3"}, "[4]": {"details": "mouse, in vivo", "description": "(§4) In another exemplary method, the transsulfuration pathway and methionine-folate cycle pathways, as show in the sematic illustrated in FIG. 18A, were assessed. In brief, three experimental groups (n=8 for each group) of male mice consisting of either untreated WT controls or HO HCU mice in the presence or absence of betaine treatment. Betaine was administered by dissolving the compound in drinking water at 30 g/l and was supplied ad libitum to the mice for one week. Treatment water was replenished twice per week.\nas §1, with “Betaine and taurine were in this example, both administered by dissolving these compounds in drinking water at 30 g/l (2% or 3% w/v) and were supplied ad libitum for one week. Treatment water was replenished twice per week.” left out"}, "HO HCU mice [5]": {"system": "HO HCU mice", "test": "Plasma metabolite levels (tHcy, methionine cycle amino acids, SAM, SAH) in HO HCU mice", "format": "in vivo, mouse", "details": "for plasma Hcy / plasma cysteine levels: HO mice, about 3.0% (w/v) in drinking water ad libitum, normal methionine diet", "description": "It is noted that WT mice (n=6) include untreated controls. HO HCU mice (N=8, 4 of each sex in each group) were either untreated or treated with about 3.0% (w/v) glycine w/v or about 3.0% (w/v) serine given in drinking water supplied ad libitum for one week. Plasma samples were taken and Hcy and cysteine levels were determined. *** denotes a P value <0.0001.\nIn accordance with these methods, HO HCU mice (N=8, 4 of each sex in each group) were treated with either about 3.0% glycine w/v or about 3.0% w/v serine given in drinking water supplied ad libitum for one week in the presence and absence of about 3.0% w/v betaine. Plasma samples were taken from the mice at various times and Hcy levels were determined.\nPlasma Hcy levels were determined from HO HCU mice (n=8 per group) in the presence and absence of either about 5.0% w/v sodium formate alone or in combination with about 3.0% betaine given in drinking water given ad libitum.\nIn one exemplary method, mice were given zinc in drinking water. For this example, 8 HO HCU mice were provided drinking water supplemented with zinc (e.g. 0.05% w/v Zinc sulfate) given ad libitum for one week.\nas §4\nA comparative reference data set was generated for these mice by examining plasma levels of tHcy, methionine, cysteine, serine, glycine, dimethylglycine, methylglycine (MG, SAM and SAH). In brief, determination of plasma levels of amino acids relevant to the methionine cycle were determined using methods similar to those described in Stabler et al., Blood. 81 (1993) 3404-3413, incorporated in its entirety herein. Determination of hepatic 5-methylTHF was performed by liquid chromatography-tandem mass spectrometry using methods similar to those described in Witham et al., PLoS One. 8 (2013) e77923, incorporated in its entirety herein. The global metabolomic analysis of methionine and folate cycle related metabolites was carried out by Metabolon, Inc. Briefly, sample preparation was performed utilizing the automated MicroLab STAR® system. Sample preparation was performed using a proprietary series of organic and aqueous extractions to remove the protein fraction while allowing maximum recovery of small molecules. The resulting extract was divided into two fractions: one for analysis by liquid chromatography and one for analysis by gas chromatography. Each sample was then frozen and dried under vacuum. The LC/mass spectrometer portion of the platform was based on a Waters ACQUITY UPLC and a Thermo-Finnigan LTQ mass spectrometer, which consisted of an electrospray ionization source and linear ion-trap mass analyzer. Samples were analyzed on a Thermo-Finnigan Trace DSQ fast-scanning single-quadrupole mass spectrometer using electron impact ionization. Identification of known chemical entities was based on comparison to library entries of authenticated standards. Tissue polyamines putrescine, spermidine and spermine and 5-methylthioadenosine (MTA) were determined by liquid chromatography-tandem mass spectrometry using methods similar to those described in Stevens et al., J Chromatogr A 1217 (2010) 3282-3288, incorporated in its entirety herein."}, "Cbs null mouse": {"system": "Cbs null mouse", "test": "Cbs null mouse model (Hcy, survival, liver injury)", "format": "in vivo", "details": "severe liver damage abolished BHMT-mediated betaine response", "from_the_text": "In another exemplary method, an acceptable mouse mode of HCU was used to study various effects of exemplary compositions disclosed herein on aberrant Hcy levels. To date, the majority of research on HCU had been performed using a CBS knockout mouse model. These Cbs (−/−) animals experienced pronounced liver injury and typically die within 2-3 weeks of birth.\nIn another exemplary method, agents were used to verify involvement of BHMT in the homocystinuria treatment process. In these exemplary methods, a Cbs null mouse was used where severe liver damage to the mouse model interferes with standard HCU treatments to reduce Hcy."}, "DMGDH": {"system": "DMGDH", "test": "Western blotting of hepatic DMGDH protein levels", "format": "in vivo, mouse", "details": "HO HCU mice, about 5.0% sodium formate alone or with about 3.0% betaine in drinking water, about one week", "from_the_text": "As shown in FIGS. 12A-12B, a Western blot comparing the level of DMGDH and GAPDH (control) for untreated (HO), treated (e.g. formate agent) and treated with standard treatment combinations (e.g. formate and trimethylglycine (e.g. betaine)) using the HCU mouse model (FIG. 12A); and further illustrating in a histogram plot (FIG. 12B), level of intensity of DMDGH for untreated (HO), treated (e.g. formate agent) and treated with standard treatment combinations (e.g. formate and trimethylglycine (e.g. betaine)) using the HCU mouse model in certain embodiments disclosed herein. Western blotting analysis of hepatic DMGDH protein levels in HO HCU mice in the presence and absence of either about 5.0% sodium formate alone or in combination with about 3.0% betaine given ad libitum in drinking water for about one week. N=9 per group. This figure is representative of three independent experiments."}, "HO HCU mice [6]": {"system": "HO HCU mice", "test": "Tail bleeding time / hypercoagulative phenotype in HO HCU mice", "format": "in vivo, mouse", "details": "4 mM solution in drinking water ad libitum, one week", "description": "In another exemplary method, effect of polyamines (e.g. spermidine and spermine) on the hypercoagulative phenotype induced by HCU was assessed which is a measure of treatment for genetic HCU where rapid coagulation is a side effect of these conditions. In brief, mice containing both the human CBS transgene and no functional copy of the mouse equivalent gene were identified by PCR from the litters of progeny of 11181×MKO^+/− F1 mice backcrossed to MKO^+/− mice. These mice were designated as “human only” (HO) mice and used as a human model of HCU. […] In order to further investigate the possible therapeutic potential of polyamine (e.g. spermidine and spermine) therapy in HCU, WT and HO HCU mice were given either: […]; […] in drinking water given ad libitum; or drinking water (untreated, control). After one week, tail bleeding times were determined for untreated wild type (WT) control B6 mice and HO HCU mice from all treatment groups."}}, "data": [{"compound": "NCCS(=O)(=O)O", "note": "[taurine]", "values": [{"measurement": "efficacy of betaine treatment in mice", "setting": "HO HCU mice [1]", "result": "enhances the efficacy of betaine treatment"}, {"measurement": "increase in hepatic SHMT1 expression", "setting": "SHMT1", "result": 35, "unit": "%"}, {"measurement": "effect upon lowering plasma tHcy levels", "setting": "HO HCU mice [2]", "result": "only a mild effect"}, {"measurement": "endothelial dysfunction in human HCU patients", "setting": "human HCU patients", "result": "completely ablate endothelial dysfunction"}, {"measurement": "hepatic MAT1a expression", "setting": "MAT1A", "result": "induced expression"}, {"measurement": "hepatic GNMT expression", "setting": "GNMT", "result": "induced expression"}, {"measurement": "HCU-induced repression of hepatic SHMT2", "setting": "SHMT2", "result": "essentially identical reversal"}, {"measurement": "HCU-mediated induction of hepatic SAHH expression", "setting": "SAHH", "result": "essentially identical reversal"}, {"measurement": "dysregulation of cysteine oxidation pathways in HCU", "setting": "[3]", "result": "ameliorate the dysregulation of cysteine oxidation pathways"}, {"measurement": "HCU-induced disturbances in glutathione metabolism and the gamma-glutamyl cycle", "setting": "glutathione", "result": "effectively normalized"}, {"measurement": "HCU-mediated induction of hepatic MTHFR expression", "setting": "MTHFR", "result": "essentially identical reversal"}, {"measurement": "tolerability of doses", "setting": "[4]", "result": "well tolerated"}]}, {"compound": "NCC(=O)O", "note": "[glycine]", "values": [{"measurement": "plasma Hcy", "setting": "HO HCU mice [5]; one week", "result": "significantly lowered"}, {"measurement": "plasma cysteine levels", "setting": "HO HCU mice [5]; one week", "result": "increased"}, {"measurement": "Hcy in Cbs null mouse model", "setting": "Cbs null mouse", "result": "unable to lower Hcy"}]}, {"compound": "O=S(=O)([O-])[O-].[Zn+2]", "note": "[Zinc sulfate]", "values": [{"measurement": "decrease in plasma homocysteine", "setting": "HO HCU mice [5]; 8 HO HCU mice, 0.05% w/v Zinc sulfate in drinking water ad libitum, one week, p<0.001", "result": 25, "unit": "%"}]}, {"compound": "O=C[O-].[Na+]", "note": "[sodium formate]", "values": [{"measurement": "plasma Hcy levels", "setting": "HO HCU mice [5]; HO HCU mice, about 5.0% w/v sodium formate alone or with about 3.0% betaine in drinking water ad libitum, normal methionine/protein diet", "result": "significantly lowered"}, {"measurement": "hepatic DMGDH expression levels", "setting": "DMGDH", "result": "restore normal expression levels"}, {"measurement": "Hcy in Cbs null mouse model", "setting": "Cbs null mouse", "result": "unable to lower Hcy"}]}, {"compound": "NCCCCNCCCN", "note": "[spermidine]", "values": [{"measurement": "clotting time (tail bleeding time) compared to untreated HO mice", "setting": "HO HCU mice [6]", "result": "highly significant increase in clotting time"}]}, {"compound": "NCCCNCCCCNCCCN", "note": "[spermine]", "values": [{"measurement": "clotting time (tail bleeding time) compared to untreated HO mice", "setting": "HO HCU mice [6]", "result": "significantly ameliorated"}]}, {"compound": "N[C@@H](CO)C(=O)O", "note": "[serine]", "values": [{"measurement": "plasma Hcy", "setting": "HO HCU mice [5]; one week", "result": "significantly lowered"}, {"measurement": "plasma cysteine levels", "setting": "HO HCU mice [5]; one week", "result": "increased"}, {"measurement": "Hcy in Cbs null mouse model", "setting": "Cbs null mouse", "result": "unable to lower Hcy"}]}]}
